# Results taken from patent US20130216666A1, “CASHEW NUT SHELL LIQUID WITH IMPROVED STABILITY” (IDEMITSU KOSAN CO., LTD., priority 2010, published 2013).
# Like-named read-outs stand apart in the source and are kept apart here.
# Assays:
# [1] = Inhibition of decarboxylation reaction in unheated cashew nut shell liquid formulation (silica), citric acid; format: physicochemical; conditions: 80° C.; for Anacardic Acid 15:1 Composition (%) / Anacardic Acid 15:1 concentration / Anacardic Acid 15:2 Composition (%) / Anacardic Acid 15:2 concentration / Anacardic Acid 15:3 Composition (%) / Anacardic Acid 15:3 concentration / Cardanol 15:1 concentration / Cardanol 15:2 Composition (%) / Cardanol 15:2 concentration / Cardanol 15:3 Composition (%) / Cardanol 15:3 concentration / Cardanol 15:1 Composition (%): mixed with silica; for inhibition of the decarboxylation: formulation with silica, 6 days
# Text: 10 g of silica (Sipernat 22) was placed into each of beakers.
# [2] = Inhibition of decarboxylation reaction when organic acid chelating agent was added (HPLC); format: physicochemical; conditions: 80° C.
# [3] = Inhibition of decarboxylation reaction in feed; conditions: 10% by weight in unheated CNSL, 80° C.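 Further: ethyl acetate extract of test feed analysed by reversed-phase C18 HPLC with absorbance detection at 280 nm, giving component composition.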
# Method: The analysis was carried out under the conditions of a solvent composition of acetonitrile: water: acetic acid =80:20:1 (based on volume), a flow rate of 2 ml/min, a temperature of 25° C., and an absorbance of 280 nm.
# Samples were taken from the beakers after 3 days and analyzed for composition by HPLC.
# For HPLC analysis, soluble fractions of the test feed was extracted with ethyl acetate and then filtered and dried to concentrate it to 5 mg/ml.
# [4] = 80° C.; for Anacardic Acid 15:1 Composition (%) / Anacardic Acid 15:1 concentration / Anacardic Acid 15:2 Composition (%) / Anacardic Acid 15:2 concentration / Anacardic Acid 15:3 Composition (%) / Anacardic Acid 15:3 concentration / Cardanol 15:1 Composition (%) / Cardanol 15:1 concentration / Cardanol 15:2 Composition (%) / Cardanol 15:2 concentration / Cardanol 15:3 Composition (%) / Cardanol 15:3 concentration: 10% by weight in unheated CNSL
# [5] = Inhibition of decarboxylation reaction in unheated cashew nut shell liquid formulation (silica), phosphoric acid / phosphate; format: physicochemical; conditions: 80° C.; for Anacardic Acid 15:1 Composition (%) / Anacardic Acid 15:1 concentration / Anacardic Acid 15:2 Composition (%) / Anacardic Acid 15:2 concentration / Anacardic Acid 15:3 Composition (%) / Anacardic Acid 15:3 concentration / Cardanol 15:1 Composition (%) / Cardanol 15:1 concentration / Cardanol 15:2 Composition (%) / Cardanol 15:2 concentration / Cardanol 15:3 Composition (%) / Cardanol 15:3 concentration: 10% by weight in unheated CNSL, mixed with silica
# Method: 10 g of silica (Sipernat 22) was placed into each of beakers. […] The sodium dihydrogen phosphate was added as an aqueous solution.
# [6] = 2% by weight in unheated CNSL, Day 0
# [7] = 2% by weight in unheated CNSL, Day 6
# [8] = 10% by weight in unheated CNSL, Day 0
# [9] = 10% by weight in unheated CNSL, Day 6
# [10] = silica composition 1% by weight in feed, Day 0
# [11] = silica composition 1% by weight in feed, Day 3
smiles,measurement,setting,value
"O=C(O)CC(O)(CC(=O)O)C(=O)O [Citric Acid, citric acid]",Anacardic Acid 15:1 Composition (%),[1]; [6],39.36%
same,Anacardic Acid 15:1 concentration,[1]; [6],161.67 ppm
same,Anacardic Acid 15:2 Composition (%),[1]; [6],14.07%
same,Anacardic Acid 15:2 concentration,[1]; [6],57.80 ppm
same,Anacardic Acid 15:3 Composition (%),[1]; [6],32.64%
same,Anacardic Acid 15:3 concentration,[1]; [6],134.06 ppm
same,Cardanol 15:1 concentration,[1]; [6],23.41 ppm
same,Cardanol 15:2 Composition (%),[1]; [6],2.78%
same,Cardanol 15:2 concentration,[1]; [6],11.43 ppm
same,Cardanol 15:3 Composition (%),[1]; [6],5.44%
same,Cardanol 15:3 concentration,[1]; [6],22.36 ppm
same,Anacardic Acid 15:1 Composition (%),[1]; [7],32.92%
same,Anacardic Acid 15:1 concentration,[1]; [7],121.26 ppm
same,Anacardic Acid 15:2 Composition (%),[1]; [7],11.63%
same,Anacardic Acid 15:2 concentration,[1]; [7],42.84 ppm
same,Anacardic Acid 15:3 Composition (%),[1]; [7],26.37%
same,Anacardic Acid 15:3 concentration,[1]; [7],97.14 ppm
same,Cardanol 15:1 Composition (%),[1]; [7],12.91%
same,Cardanol 15:1 concentration,[1]; [7],47.56 ppm
same,Cardanol 15:2 Composition (%),[1]; [7],4.67%
same,Cardanol 15:2 concentration,[1]; [7],17.19 ppm
same,Cardanol 15:3 Composition (%),[1]; [7],11.49%
same,Cardanol 15:3 concentration,[1]; [7],42.34 ppm
same,Anacardic Acid 15:1 Composition (%),[1]; [8],39.73%
same,Anacardic Acid 15:1 concentration,[1]; [8],151.81 ppm
same,Anacardic Acid 15:2 Composition (%),[1]; [8],14.05%
same,Anacardic Acid 15:2 concentration,[1]; [8],53.68 ppm
same,Anacardic Acid 15:3 Composition (%),[1]; [8],32.47%
same,Anacardic Acid 15:3 concentration,[1]; [8],124.09 ppm
same,Cardanol 15:1 concentration,[1]; [8],21.54 ppm
same,Cardanol 15:2 Composition (%),[1]; [8],2.79%
same,Cardanol 15:2 concentration,[1]; [8],10.67 ppm
same,Cardanol 15:3 Composition (%),[1]; [8],5.32%
same,Cardanol 15:3 concentration,[1]; [8],20.34 ppm
same,Anacardic Acid 15:1 Composition (%),[1]; [9],38.12%
same,Anacardic Acid 15:1 concentration,[1]; [9],136.67 ppm
same,Anacardic Acid 15:2 Composition (%),[1]; [9],14.58%
same,Anacardic Acid 15:2 concentration,[1]; [9],52.15 ppm
same,Anacardic Acid 15:3 Composition (%),[1]; [9],30.40%
same,Anacardic Acid 15:3 concentration,[1]; [9],108.99 ppm
same,Cardanol 15:1 Composition (%),[1]; [9],7.19%
same,Cardanol 15:1 concentration,[1]; [9],25.79 ppm
same,Cardanol 15:2 Composition (%),[1]; [9],3.19%
same,Cardanol 15:2 concentration,[1]; [9],11.43 ppm
same,Cardanol 15:3 Composition (%),[1]; [9],6.55%
same,Cardanol 15:3 concentration,[1]; [9],23.49 ppm
same,inhibition of the decarboxylation,[1]; 2% by weight,moderate inhibition
same,inhibition of the decarboxylation,[1]; 10% by weight,significant inhibition
same,Anacardic Acid 15:1 Composition (%),[2]; [6],39.78%
same,Anacardic Acid 15:1 concentration,[2]; [6],332.79 ppm
same,Anacardic Acid 15:2 Composition (%),[2]; [6],14.23%
same,Anacardic Acid 15:2 concentration,[2]; [6],119.04 ppm
same,Anacardic Acid 15:3 Composition (%),[2]; [6],33.01%
same,Anacardic Acid 15:3 concentration,[2]; [6],276.11 ppm
same,Cardanol 15:1 concentration,[2]; [6],45.23 ppm
same,Cardanol 15:2 Composition (%),[2]; [6],2.32%
same,Cardanol 15:2 concentration,[2]; [6],19.40 ppm
same,Cardanol 15:3 Composition (%),[2]; [6],5.25%
same,Cardanol 15:3 concentration,[2]; [6],43.93 ppm
same,Anacardic Acid 15:1 Composition (%),[2]; [7],32.78%
same,Anacardic Acid 15:1 concentration,[2]; [7],281.46 ppm
same,Anacardic Acid 15:2 Composition (%),[2]; [7],11.39%
same,Anacardic Acid 15:2 concentration,[2]; [7],97.81 ppm
same,Anacardic Acid 15:3 Composition (%),[2]; [7],26.31%
same,Anacardic Acid 15:3 concentration,[2]; [7],225.94 ppm
same,Cardanol 15:1 concentration,[2]; [7],111.23 ppm
same,Cardanol 15:2 Composition (%),[2]; [7],4.84%
same,Cardanol 15:2 concentration,[2]; [7],41.54 ppm
same,Cardanol 15:3 Composition (%),[2]; [7],11.72%
same,Cardanol 15:3 concentration,[2]; [7],100.64 ppm
same,Anacardic Acid 15:1 Composition (%),[2]; [8],39.28%
same,Anacardic Acid 15:1 concentration,[2]; [8],248.49 ppm
same,Anacardic Acid 15:2 Composition (%),[2]; [8],14.38%
same,Anacardic Acid 15:2 concentration,[2]; [8],90.98 ppm
same,Anacardic Acid 15:3 Composition (%),[2]; [8],33.19%
same,Anacardic Acid 15:3 concentration,[2]; [8],209.99 ppm
same,Cardanol 15:1 concentration,[2]; [8],34.38 ppm
same,Cardanol 15:2 Composition (%),[2]; [8],2.45%
same,Cardanol 15:2 concentration,[2]; [8],15.47 ppm
same,Cardanol 15:3 Composition (%),[2]; [8],5.27%
same,Cardanol 15:3 concentration,[2]; [8],33.37 ppm
same,Anacardic Acid 15:1 Composition (%),[2]; [9],38.07%
same,Anacardic Acid 15:1 concentration,[2]; [9],273.99 ppm
same,Anacardic Acid 15:2 Composition (%),[2]; [9],13.78%
same,Anacardic Acid 15:2 concentration,[2]; [9],99.14 ppm
same,Anacardic Acid 15:3 Composition (%),[2]; [9],31.48%
same,Anacardic Acid 15:3 concentration,[2]; [9],226.51 ppm
same,Cardanol 15:1 concentration,[2]; [9],49.53 ppm
same,Cardanol 15:2 Composition (%),[2]; [9],3.30%
same,Cardanol 15:2 concentration,[2]; [9],23.72 ppm
same,Cardanol 15:3 Composition (%),[2]; [9],6.49%
same,Cardanol 15:3 concentration,[2]; [9],46.72 ppm
same,stability of the shell liquid in the feed (progress of the decarboxylation),"[3]; in feed, 3 days",stable in the feed without progress of the decarboxylation
same,Anacardic Acid 15:1 Composition (%),[3]; [10],40.28%
same,Anacardic Acid 15:1 concentration,[3]; [10],363.92 ppm
same,Anacardic Acid 15:2 Composition (%),[3]; [10],13.76%
same,Anacardic Acid 15:2 concentration,[3]; [10],124.28 ppm
same,Anacardic Acid 15:3 Composition (%),[3]; [10],33.11%
same,Anacardic Acid 15:3 concentration,[3]; [10],299.13 ppm
same,Cardanol 15:1 concentration,[3]; [10],48.69 ppm
same,Cardanol 15:2 Composition (%),[3]; [10],2.31%
same,Cardanol 15:2 concentration,[3]; [10],20.83 ppm
same,Cardanol 15:3 Composition (%),[3]; [10],5.15%
same,Cardanol 15:3 concentration,[3]; [10],46.52 ppm
same,Anacardic Acid 15:1 Composition (%),[3]; [11],38.54%
same,Anacardic Acid 15:1 concentration,[3]; [11],309.33 ppm
same,Anacardic Acid 15:2 Composition (%),[3]; [11],13.16%
same,Anacardic Acid 15:2 concentration,[3]; [11],105.64 ppm
same,Anacardic Acid 15:3 Composition (%),[3]; [11],31.68%
same,Anacardic Acid 15:3 concentration,[3]; [11],254.26 ppm
same,Cardanol 15:1 Composition (%),[3]; [11],6.98%
same,Cardanol 15:1 concentration,[3]; [11],56.00 ppm
same,Cardanol 15:2 Composition (%),[3]; [11],2.98%
same,Cardanol 15:2 concentration,[3]; [11],23.95 ppm
same,Cardanol 15:3 Composition (%),[3]; [11],6.67%
same,Cardanol 15:3 concentration,[3]; [11],53.50 ppm
"O=P([O-])(O)O.[Na+] [Sodium Dihydrogen Phosphate, sodium dihydrogen phosphate]",Anacardic Acid 15:1 Composition (%),[4]; Day 0,39.93%
same,Anacardic Acid 15:1 concentration,[4]; Day 0,1103 ppm
same,Anacardic Acid 15:2 Composition (%),[4]; Day 0,14.10%
same,Anacardic Acid 15:2 concentration,[4]; Day 0,389 ppm
same,Anacardic Acid 15:3 Composition (%),[4]; Day 0,32.43%
same,Anacardic Acid 15:3 concentration,[4]; Day 0,896 ppm
same,Cardanol 15:1 Composition (%),[4]; Day 0,5.46%
same,Cardanol 15:1 concentration,[4]; Day 0,151 ppm
same,Cardanol 15:2 Composition (%),[4]; Day 0,2.52%
same,Cardanol 15:2 concentration,[4]; Day 0,70 ppm
same,Cardanol 15:3 Composition (%),[4]; Day 0,5.55%
same,Cardanol 15:3 concentration,[4]; Day 0,153 ppm
same,Anacardic Acid 15:1 Composition (%),[4]; Day 3,30.94%
same,Anacardic Acid 15:1 concentration,[4]; Day 3,964 ppm
same,Anacardic Acid 15:2 Composition (%),[4]; Day 3,10.81%
same,Anacardic Acid 15:2 concentration,[4]; Day 3,337 ppm
same,Anacardic Acid 15:3 Composition (%),[4]; Day 3,24.87%
same,Anacardic Acid 15:3 concentration,[4]; Day 3,774 ppm
same,Cardanol 15:1 Composition (%),[4]; Day 3,14.32%
same,Cardanol 15:1 concentration,[4]; Day 3,446 ppm
same,Cardanol 15:2 Composition (%),[4]; Day 3,5.95%
same,Cardanol 15:2 concentration,[4]; Day 3,185 ppm
same,Cardanol 15:3 Composition (%),[4]; Day 3,13.10%
same,Cardanol 15:3 concentration,[4]; Day 3,408 ppm
same,inhibition of the decarboxylation,"[4]; 10% by weight, three days",moderate inhibition
same,Anacardic Acid 15:1 Composition (%),[5]; Day 0,40.20%
same,Anacardic Acid 15:1 concentration,[5]; Day 0,563.78 ppm
same,Anacardic Acid 15:2 Composition (%),[5]; Day 0,14.00%
same,Anacardic Acid 15:2 concentration,[5]; Day 0,196.40 ppm
same,Anacardic Acid 15:3 Composition (%),[5]; Day 0,32.21%
same,Anacardic Acid 15:3 concentration,[5]; Day 0,451.72 ppm
same,Cardanol 15:1 Composition (%),[5]; Day 0,5.74%
same,Cardanol 15:1 concentration,[5]; Day 0,80.56 ppm
same,Cardanol 15:2 Composition (%),[5]; Day 0,2.45%
same,Cardanol 15:2 concentration,[5]; Day 0,34.39 ppm
same,Cardanol 15:3 Composition (%),[5]; Day 0,5.39%
same,Cardanol 15:3 concentration,[5]; Day 0,75.66 ppm
same,Anacardic Acid 15:1 Composition (%),[5]; Day 3,32.90%
same,Anacardic Acid 15:1 concentration,[5]; Day 3,502.26 ppm
same,Anacardic Acid 15:2 Composition (%),[5]; Day 3,11.28%
same,Anacardic Acid 15:2 concentration,[5]; Day 3,172.11 ppm
same,Anacardic Acid 15:3 Composition (%),[5]; Day 3,25.93%
same,Anacardic Acid 15:3 concentration,[5]; Day 3,395.86 ppm
same,Cardanol 15:1 Composition (%),[5]; Day 3,13.16%
same,Cardanol 15:1 concentration,[5]; Day 3,200.81 ppm
same,Cardanol 15:2 Composition (%),[5]; Day 3,5.23%
same,Cardanol 15:2 concentration,[5]; Day 3,79.82 ppm
same,Cardanol 15:3 Composition (%),[5]; Day 3,11.50%
same,Cardanol 15:3 concentration,[5]; Day 3,175.60 ppm
same,inhibition of the decarboxylation,"[5]; formulation with silica, 10% by weight, 3 days",moderate inhibition
